# Experiments:
# Type in all cases: functional
# [1] = tested on: NCI-H460; assay: Anticancer activity against human NCL-H460 cells assessed as growth at 100 uM after 48 hrs by SRB protein assay relative to control; conditions: NCI-H460, 48 h, read-out: Activity
# [2] = tested on: MCF7; assay: Anticancer activity against human MCF7 cells assessed as growth at 100 uM after 48 hrs by SRB protein assay relative to control; conditions: MCF7, 48 h, read-out: Activity
# [3] = tested on: SF-268; assay: Anticancer activity against human SF268 cells assessed as growth at 100 uM after 48 hrs by SRB protein assay relative to control; conditions: SF-268, 48 h, read-out: Activity
SMILES,growth at 100 µM [1] [%],growth at 100 µM [2] [%],growth at 100 µM [3] [%]
Nc1ncnc2c1ncn2Cc1cccc(Cn2cnc3c(N)ncnc32)c1,96,109,108
Clc1ncnc2c1ncn2Cc1ccccc1Cn1cnc2c(Cl)ncnc21,58,78,78
Nc1ncnc2c1ncn2Cc1ccccc1Cn1cnc2c(N)ncnc21,84,99,99
Clc1ncnc2c1ncn2Cc1ccc(Cn2cnc3c(Cl)ncnc32)cc1,95,101,86
Clc1ncnc2c1ncn2Cc1ccc(-c2ccc(Cn3cnc4c(Cl)ncnc43)cc2)cc1,45,67,95
Clc1ncnc2c1ncn2Cc1cccc(Cn2cnc3c(Cl)ncnc32)c1,65,77,90
Nc1ncnc2c1ncn2Cc1ccc(Cn2cnc3c(N)ncnc32)cc1,111,112,96
Nc1ncnc2c1ncn2Cc1ccc(-c2ccc(Cn3cnc4c(N)ncnc43)cc2)cc1,98,86,50

# Reference: ChEMBL document CHEMBL1143809, “New bis-N9-(methylphenylmethyl)purine derivatives: synthesis and antitumor activity” (2007)
